Among the data in patent US8691820B2, “CDK inhibitors” (Curis, Inc., priority 2008, dated 2014) are IC50 values, retold here.

This test addresses T1, CDK2/cyclinA (Homo sapiens, UniProt P24941).
T1 construct: C-terminal 6His-tagged human full length cdk2 (MW=35 kDa); 6His (C); made in house; host or cells: Sf21 insect cells (baculovirus)
The test is described as follows: CDK2 kinase assay (33P-ATP, Histone H1 substrate). The test is classed as biochemical. To be noted: 1 μM ATP, 5 μM Histon H1, 2 hours at room temperature. The source says:
CDK2/cyclinA (Accession number for CDK2; EMBL M68520, for cyclin A; EMBL X51688): C-terminal 6His-tagged human full length cdk2 (MW=35 kDa), and N-terminal GST-tagged human full length cyclin A (MW=75 kDa) were expressed individually with baculovirus system in Sf21 insect cells. Recombinant cdk2 protein was purified with Ni2+/NTA agarose and then activated using CAK and repurified by Q Sepharose and Ni2+/NTA agarose. Recombinant cyclin A was purified using glutathione-agarose. They were then mixed in vitro to form protein complex. Recombinant protein complex was measured to be 67% in purity with SDS-PAGE and Coomassie blue staining. Specific activity of purified enzyme was measured to be 158 U/mg, where one unit of cdk2/cyclinA activity is defined as 1 nmol phosphate incorporated into 0.1 mg/ml histone H1 per minute at 30° C. with a final ATP concentration of […]. Enzyme was stored at a concentration of 0.1 mg/ml in 50 mM Tris/HCl pH7.5, 150 mM NaCl, 0.1 mM EGTA, 0.03% Brij-35, 270 mM sucrose, 1 mM benzamidine, 0.2 mM PMSF, 0.1% 2-mercaptoethanol. Frozen solution.
Histon H1 (Substrate for CDK2): Histone H1 (Sigma cat#H4524), was purified as a lysine rich fraction from calf thymus with 93% purity (MW=21.5 kDa). Purified protein was stored at a concentration of 20 mg/ml=930 μM in distilled water.
[…] (0.5 nmol) and 5 μM Histon H1 were mixed in the reaction buffer (20 mM HEPES (pH 7.5), 10 mM MgCl2, 1 mM EGTA, 0.02% Brij 35, 0.02 mg/ml BSA, 0.1 mM Na3VO4, 2 mM DTT) with final concentration of 1 μM ATP and 1% DMSO. The reaction was incubated for 2 hours at room temperature and conversion rate of ATP is about 4.5%. An equal volume of 25% TCA was added to stop the reaction and precipitate the labeled peptides. Precipitated proteins were trapped onto glass fiber B filterplates and excess […] p33 ATP was washed off. The plates were allowed to air-dry prior to the addition of 30 uL/well of Packard Microscint 20. The amount of incorporated isotope was measured using a Perkin Elmer TopCount plate reader. Different concentrations of compounds were added to reaction to assess the activity of compounds to inhibit […]. IC50 was calculated using Prism software with sigmoidal dose-response curve fitting.
The following TABLE B lists compounds representative of the invention and their activity in the CDK2 assay. In this assay, the following grading was used: I≧10 μM, 10 μM>II>1 μM, 1 μM>III>0.1 μM, and IV≦0.1 μM for IC50.

For orientation: IC50 means the concentration that gives 50% inhibition. In the case of `CONC(=O)CCCCCCC(=O)Nc1ncc(SCc2ncc(C(C)(C)C)o2)s1` [Compound 1, N^1-(5-((5-tert-butyloxazol-2-yl)methylthio)thiazol-2-yl)-N^8-methoxyoctanediamide], the concentration for half-maximal inhibition (IC50) was not above 100 nM. For the compound `CC(C)(C)c1cnc(CSc2cnc(NC(=O)CCCCCCC(=O)NOCc3ccccc3)s2)o1` [Compound 2, N^1-(benzyloxy)-N^8-(5-((5-tert-butyloxazol-2-yl)methylthio)thiazol-2-yl)octanediamide], the 50% inhibitory concentration (IC50) was not above 100 nM. `CC(C)(C)c1cnc(CSc2cnc(NC(=O)CCCCCCC(=O)NOC3CCCCO3)s2)o1` (stereo not drawn) [Compound 3, N^1-(5-((5-tert-butyloxazol-2-yl)methylthio)thiazol-2-yl)-N^8-(tetrahydro-2H-pyran-2-yloxy)octanediamide]: the IC50 is not above 100 nM. In the case of `CN(O)C(=O)CCCCCCC(=O)Nc1ncc(SCc2ncc(C(C)(C)C)o2)s1` [Compound 4, N^1-(5-((5-tert-butyloxazol-2-yl)methylthio)thiazol-2-yl)-N^8-hydroxy-N^8-methyloctanediamide], the concentration for half-maximal inhibition (IC50) was not above 100 nM. With `CC(C)(C)c1cnc(CSc2cnc(NC(=O)CCCCCCC(=O)N(O)Cc3ccccc3)s2)o1` [Compound 6, N^1-benzyl-N^8-(5-((5-tert-butyloxazol-2-yl)methylthio)-thiazol-2-yl)-N^1-hydroxyoctanediamide], the IC50 is not above 100 nM. Turning to `CC(C)(C)c1cnc(CSc2cnc(NC(=O)CCCCCCC(=O)NOCCO)s2)o1` [Compound 7, N^1-(5-((5-tert-butyloxazol-2-yl)methylthio)thiazol-2-yl)-N^8-(2-hydroxyethoxy)octanediamide], the IC50 was not above 100 nM. On to `CC(C)(C)c1cnc(CSc2cnc(NC(=O)CCCCCCC(=O)Nc3ccc(CCO)cc3)s2)o1` [Compound 8, N^1-(5-((5-tert-butyloxazol-2-yl)methylthio)thiazol-2-yl)-N^8-(4-(2-hydroxyethyl)phenyl)octanediamide], for which the IC50 is not above 100 nM. With `CC(C)(C)c1cnc(CSc2cnc(NC(=O)CCCCCCC(=O)Nc3ccccc3)s2)o1` [Compound 9, N^1-(5-((5-tert-butyloxazol-2-yl)methylthio)thiazol-2-yl)-N^8-phenyloctanediamide] the figure was not above 100 nM; with `CC(C)(C)c1cnc(CSc2cnc(NC(=O)CCCCCCC(=O)Nc3ccc(O)cc3)s2)o1` [Compound 10, N^1-(5-((5-tert-butyloxazol-2-yl)methylthio)thiazol-2-yl)-N^8-(4-hydroxyphenyl)octanediamide], not above 100 nM; with `CC(C)(C)c1cnc(CSc2cnc(NC(=O)C(=O)Nc3ccccc3)s2)o1` [Compound 11], 100 to 1000 nM. Compound `CC(C)(C)c1cnc(CSc2cnc(NC(=O)CC(=O)Nc3ccccc3N)s2)o1` [Compound 13, N1-(2-aminophenyl)-N3-(5-((5-tert-butyloxazol-2-yl)methylthio)thiazol-2-yl)malonamide] yielded an IC50 not above 100 nM. Compound `CC(C)(C)c1cnc(CSc2cnc(NC(=O)CCCC(=O)Nc3ccccc3N)s2)o1` [Compound 15, N1-(2-aminophenyl)-N5-(5-((5-tert-butyloxazol-2-yl)methylthio)thiazol-2-yl)glutaramide] gave an IC50 not above 100 nM.

In turn, `CC(C)(C)c1cnc(CSc2cnc(NC(=O)CCCCC(=O)Nc3ccccc3N)s2)o1` [Compound 16, N1-(2-aminophenyl)-N6-(5-((5-tert-butyloxazol-2-yl)methylthio)thiazol-2-yl)adipamide] showed an IC50 not above 100 nM. `CC(C)(C)c1cnc(CSc2cnc(NC(=O)CCCCCC(=O)Nc3ccccc3N)s2)o1` [Compound 17, N1-(2-aminophenyl)-N7-(5-((5-tert-butyloxazol-2-yl)methylthio)thiazol-2-yl)heptanediamide] came in with an IC50 not above 100 nM. `CC(=O)Nc1ccccc1NC(=O)CCCCCCC(=O)Nc1ncc(SCc2ncc(C(C)(C)C)o2)s1` [Compound 19, N^1-(2-acetamidophenyl)-N^8-(5-((5-tert-butyloxazol-2-yl)methylthio)thiazol-2-yl)octanediamide]: the IC50 is not above 100 nM.
